target: T1, RIPK1 (Homo sapiens, UniProt Q13546); test: RIPK1 degradation Western Blot assay; format: cell-based; conditions: human cells, 24 h incubation at 37° C., read-out: Degradation Activity (DC50, concentration at which 50% of RIPK1 kinase has been degraded)
T1 construct: endogenous in cells
T1 sequence (Q13546 1-671): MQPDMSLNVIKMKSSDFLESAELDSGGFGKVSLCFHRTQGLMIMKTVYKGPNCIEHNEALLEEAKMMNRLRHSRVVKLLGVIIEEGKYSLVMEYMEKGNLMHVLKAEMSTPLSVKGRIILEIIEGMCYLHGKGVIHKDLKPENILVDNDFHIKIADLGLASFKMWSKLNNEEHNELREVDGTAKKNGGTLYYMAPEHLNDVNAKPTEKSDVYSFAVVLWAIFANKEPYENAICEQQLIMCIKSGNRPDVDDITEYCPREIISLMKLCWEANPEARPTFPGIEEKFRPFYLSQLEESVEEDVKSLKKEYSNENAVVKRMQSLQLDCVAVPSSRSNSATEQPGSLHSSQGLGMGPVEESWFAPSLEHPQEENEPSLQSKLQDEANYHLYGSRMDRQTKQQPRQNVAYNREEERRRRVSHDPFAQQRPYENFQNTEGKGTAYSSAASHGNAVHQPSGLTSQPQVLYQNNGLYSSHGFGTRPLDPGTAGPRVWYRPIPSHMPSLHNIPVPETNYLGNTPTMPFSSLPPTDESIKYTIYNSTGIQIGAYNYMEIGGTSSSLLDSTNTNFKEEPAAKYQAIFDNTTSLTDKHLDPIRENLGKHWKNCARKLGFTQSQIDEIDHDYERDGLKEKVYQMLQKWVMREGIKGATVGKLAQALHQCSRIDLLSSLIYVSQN
Procedure: Cells were seeded in 6-well cell culture plates overnight prior to treatment and incubated with the indicated doses of compounds for 24 h at 37° C. Then, cell pellets were collected and resuspended with RIPA lysis buffer, which was added with 1% […] inhibitor and phosphatase inhibitor Cocktail. Whole-cell protein lysates were sonicated on ice for 20 seconds and centrifuged at 12 000 rpm for 20 min at 4° C. The supernatants were determined using the BCA method. Proteins were separated by sodium dodecyl sulfate-polyacrylamide gel electrophoresis and transferred to polyvinylidene fluoride membranes. The membranes were incubated with blocking buffer for 1 h. Then, the membranes were incubated at 4° C. overnight with the primary antibodies. After washing, the membranes were incubated for 1 h at room temperature with the secondary antibody and washed again. Changes in protein expression was detected using an enhanced chemiluminescence detection reagent. RIPK1 antibody was purchased from Santa Cruz.
The activities of exemplary compounds as described herein, measured in terms of the degradation concentration (DC50 representing the concentration at which 50% of the target, in this case RIPK1 kinase, has been degraded), are provided in Table 11. In Table 11, a DC50 value less than 1 μM is indicated as an “A;” a DC50 value from 1 μM to 10 μM is indicated as a “B” and a DC50 value of greater than 10 μM is indicated as a “C.”

Row | Compound | DC50 [nM]
1 | Cc1ncsc1-c1ccc([C@H](CC(=O)NCCCCCCCCC(=O)NCCCn2cc(-c3ccc4c(c3)CCN4C(=O)Cc3cccc(OC(F)(F)F)c3)c3c(N)ncnc32)NC(=O)[C@@H]2C[C@@H](O)CN2C(=O)[C@H](NC(=O)C2(F)CC2)C(C)(C)C)cc1 [Compound 40, (2S,4R)—N—((S)-3-((9-((3-(4-amino-5-(1-(2-(3-(trifluoromethoxy)phenyl)acetyl)indolin-5-yl)-7H-pyrrolo[2,3-d]pyrimidin-7-yl)propyl)amino)-9-oxononyl)amino)-1-(4-(4-methylthiazol-5-yl)phenyl)-3-oxopropyl)-1-((R)-2-(1-fluorocyclopropane-1-carboxamido)-3,3-dimethylbutanoyl)-4-hydroxypyrrolidine-2-carboxamide] | < 1000
2 | Cc1ncsc1-c1ccc([C@H](CC(=O)N2CCC(N3CCC(C#Cc4ccc(C(=O)NCCCn5cc(-c6ccc7c(c6)CCN7C(=O)Cc6cccc(OC(F)(F)F)c6)c6c(N)ncnc65)cc4)CC3)CC2)NC(=O)[C@@H]2C[C@@H](O)CN2C(=O)[C@@H](NC(=O)C2(F)CC2)C(C)(C)C)cc1 [Compound 45] | < 1000
3 | Cc1ncsc1-c1ccc([C@H](CC(=O)N2CCN(c3ccc(C#Cc4ccc(C(=O)NCCCn5cc(-c6ccc7c(c6)CCN7C(=O)Cc6cccc(OC(F)(F)F)c6)c6c(N)ncnc65)cc4)cn3)CC2)NC(=O)[C@@H]2C[C@@H](O)CN2C(=O)[C@@H](NC(=O)C2(F)CC2)C(C)(C)C)cc1 [Compound 46] | < 1000
4 | Cc1ncsc1-c1ccc([C@H](CC(=O)N2CCC(N3CCN(c4ccc(C#Cc5ccc(C(=O)NCCCn6cc(-c7ccc8c(c7)CCN8C(=O)Cc7cccc(OC(F)(F)F)c7)c7c(N)ncnc76)cc5)cn4)CC3)CC2)NC(=O)[C@@H]2C[C@@H](O)CN2C(=O)[C@@H](NC(=O)C2(F)CC2)C(C)(C)C)cc1 [Compound 47] | > 10000
5 | Nc1ncnc2c1c(-c1ccc3c(c1)CCN3C(=O)Cc1cccc(OC(F)(F)F)c1)cn2CCCNC(=O)CCCCNC(=O)CN1CCC(c2ccc(NC3CCC(=O)NC3=O)cc2)CC1 (centres unmarked) [Compound 62] | < 1000
6 | Nc1ncnc2c1c(-c1ccc3c(c1)CCN3C(=O)Cc1cccc(OC(F)(F)F)c1)cn2CCCNC(=O)c1ccc(C#CC2CCN(C3CCN(C(=O)CN4CCC(c5ccc(NC6CCC(=O)NC6=O)cc5)CC4)CC3)CC2)cc1 (centres unmarked) [Compound 66] | < 1000
7 | Nc1ncnc2c1c(-c1ccc3c(c1)CCN3C(=O)Cc1cccc(OC(F)(F)F)c1)cn2CCCNC(=O)c1ccc(C#Cc2ccc(N3CCN(C(=O)CN4CCC(c5ccc(NC6CCC(=O)NC6=O)cc5)CC4)CC3)nc2)cc1 (centres unmarked) [Compound 67] | < 1000
8 | Nc1ncnc2c1c(-c1ccc3c(c1)CCN3C(=O)Cc1cccc(OC(F)(F)F)c1)cn2CCCNC(=O)c1ccc(C#Cc2ccc(N3CC4(CN(C(=O)CN5CCC(c6ccc(NC7CCC(=O)NC7=O)cc6)CC5)C4)C3)nc2)cc1 (centres unmarked) [Compound 68] | < 1000
9 | Nc1ncnc2c1c(-c1ccc3c(c1)CCN3C(=O)Cc1cccc(OC(F)(F)F)c1)cn2CCCNC(=O)c1ccc(C#CC2CCN(C(=O)CN3CCC(c4ccc(NC5CCC(=O)NC5=O)cc4)CC3)CC2)cc1 (centres unmarked) [Compound 69] | 1000 to 10000
10 | Cc1ncsc1-c1ccc([C@H](C)NC(=O)[C@@H]2C[C@@H](O)CN2C(=O)[C@@H](NC(=O)CCCCCCCCNC(=O)c2ccc(-c3cc(N4CCC(C(=O)N5N=CCC5c5ccccc5)CC4)ncn3)cc2)C(C)(C)C)cc1 (some centres unmarked) [Compound 77] | > 10000
11 | Cn1c(=O)n(C2CCC(=O)NC2=O)c2ccc(CCC(=O)N3CCC(N4CCC(C#Cc5ccc(C(=O)NCCCn6cc(-c7ccc8c(c7)CCN8C(=O)Cc7cccc(OC(F)(F)F)c7)c7c(N)ncnc76)cc5)CC4)CC3)cc21 (centres unmarked) [Compound 78] | < 1000
12 | Cn1c(=O)n(C2CCC(=O)NC2=O)c2ccc(CCC(=O)N3CCN(c4ccc(C#Cc5ccc(C(=O)NCCCn6cc(-c7ccc8c(c7)CCN8C(=O)Cc7cccc(OC(F)(F)F)c7)c7c(N)ncnc76)cc5)cn4)CC3)cc21 (centres unmarked) [Compound 79] | < 1000
13 | Cn1c(=O)n(C2CCC(=O)NC2=O)c2ccc(CCC(=O)N3CCC(C#Cc4ccc(C(=O)NCCCn5cc(-c6ccc7c(c6)CCN7C(=O)Cc6cccc(OC(F)(F)F)c6)c6c(N)ncnc65)cc4)CC3)cc21 (centres unmarked) [Compound 80] | < 1000
14 | Cn1c(=O)n(C2CCC(=O)NC2=O)c2ccc(CCC(=O)c3ccc(C#Cc4ccc(C(=O)NCCCn5cc(-c6ccc7c(c6)CCN7C(=O)Cc6cccc(OC(F)(F)F)c6)c6c(N)ncnc65)cc4)cn3)cc21 (centres unmarked) [Compound 81] | < 1000

From patent US20240123073A1, “NOVEL RIPK1 KINASE TARGETING PROTACS AND METHODS OF USE THEREOF” (Baylor College of Medicine, priority 2020, published 2024)
